# Laboratory results reported in BindingDB's records for patent WO2025054369 (NICO Therapeutics, 2025).
# Target: T1, NAD(+) hydrolase SARM1 (Homo sapiens, UniProt Q6SZW1)
# T1 sequence (Q6SZW1 whole entry): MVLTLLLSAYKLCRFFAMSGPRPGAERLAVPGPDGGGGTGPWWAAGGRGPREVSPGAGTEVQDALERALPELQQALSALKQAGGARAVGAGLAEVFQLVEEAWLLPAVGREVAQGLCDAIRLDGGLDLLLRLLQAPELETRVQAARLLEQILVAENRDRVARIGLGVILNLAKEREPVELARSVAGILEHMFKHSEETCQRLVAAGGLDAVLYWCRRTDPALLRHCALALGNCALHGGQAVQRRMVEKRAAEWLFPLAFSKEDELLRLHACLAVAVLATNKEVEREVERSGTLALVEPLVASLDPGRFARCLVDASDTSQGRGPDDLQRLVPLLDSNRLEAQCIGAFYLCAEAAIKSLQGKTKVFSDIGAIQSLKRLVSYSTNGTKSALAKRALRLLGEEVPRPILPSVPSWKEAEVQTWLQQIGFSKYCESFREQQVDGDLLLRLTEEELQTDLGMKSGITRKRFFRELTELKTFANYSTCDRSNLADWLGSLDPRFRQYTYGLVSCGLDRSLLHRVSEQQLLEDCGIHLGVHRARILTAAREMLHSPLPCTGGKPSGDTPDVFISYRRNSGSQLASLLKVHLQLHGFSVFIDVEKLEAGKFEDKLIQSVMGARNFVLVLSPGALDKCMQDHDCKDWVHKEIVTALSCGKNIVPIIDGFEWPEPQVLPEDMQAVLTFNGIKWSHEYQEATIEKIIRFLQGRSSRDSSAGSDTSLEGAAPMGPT
# Test: Biochemical Assay of the Compounds
# Method: Preparation of full-length SARM1 (FL-SARM1) lysate: HEK293T cells (ATCC: CRL-3216) were grown on 150 mm TC-treated dishes to 80-90% confluency in complete DMEM (DMEM (Thermo Fisher: 11965175) supplemented with 10% HI-FBS (VWR: 10802-772), 1x Pen/Strep (Thermo Fisher: 15140122), 1x NEAA (Thermo Fisher: 1140050), 1x glutamax (Thermo Fisher: 35050061), and 1 mM sodium pyruvate (Thermo Fisher: 11360070)) at 37 °C and 5% CO2. One hour prior to transfection, the media was replaced with fresh, 37 °C complete DMEM (20 mL per one 150 mm dish) supplemented with additional 10mM glucose (Alfa Aesar AAJ60067EQE). Per one 150 mm dish, 30 µg FL-SARM1 (SEQ. ID.1; cloned in-house) plasmid was dissolved in 1 mL DMEM at ambient temperature and were mixed by inverting the tube 8-10 times.90 µL of GenJet™ in vitro DNA transfection reagent (Ver2) was dissolved in 1 mL DMEM at ambient temperature and were mixed by inverting the tube 8-10 times. The plasmid and transfection agent solutions were combined, mixed by 8-10 inversions and incubated for 10 minutes at ambient temperature.2 mL of this transfection mixture was added to each dish containing HEK293T cells as prepared above followed by a gentle mixing of 4-5 horizontal rotations. The dishes were incubated at 37 °C and 5% CO2 for 24 h. The dishes were removed from the incubator, the medium was aspirated and the cells were scraped off using cell scrapers in ice-cold 1x PBS (5 mL/dish, Thermo Fisher Scientific 10010023). The collected cells were centrifuged at 300 g for 5 minutes at 4 °C. The supernatant was aspirated and the pellet was frozen at -80 °C until needed. The cell pellet from 30 dishes was dissolved in 30 mL 1x PBS supplemented with 4 tablets of Complete, Mini EDTA-free protease inhibitor cocktail at 4 °C. This mixture was sonicated on ice for 10 minutes at 50% amplitude with a 1 second on/1 second off interval using a Model 120 sonicator (Thermo Fisher Scientific, FB120110). The lysate was centrifuged at 16000 g for 10 minutes at 4 °C.
row,SMILES,IC50
1,"CC1CC2CC(C1)N2C(=O)Nc1ccc(Cl)c(N2CCC2CF)c1 (stereo not drawn) [WO2025054369, Example 84]",< 1000 nM
2,"C[C@@H]1C[C@@H]2C[C@H](C1)N2C(=O)Nc1ccc(Cl)c(N2CC(O)C2)c1 [WO2025054369, Example 92]",< 1000 nM
3,"Cc1ccc(NC(=O)N2C3CCCC2C3)cc1C1CCC1 [WO2025054369, Example 12]",5500 nM
4,"Cc1ccc(NC(=O)N2C3CC(C)CC2C3)cc1C(C)C#N (stereo not drawn) [WO2025054369, Example 5]",< 1000 nM
5,"Cc1nnc(C23CC(C)CC(C2)N3C(=O)Nc2ccc(Cl)c([C@@H]3CC[C@@H]3C#N)c2)o1 (stereo partly drawn) [WO2025054369, Example 3]",< 1000 nM
6,"Cc1nnc([C@@]23CCC[C@@H](C2)N3C(=O)Nc2ccc(Cl)c(C3CCC3)c2)o1 [WO2025054369, Example 59]",5500 nM
7,"Cc1nnc([C@]23C[C@H](C[C@H](C(F)(F)F)C2)N3C(=O)Nc2ccc(Cl)c(C3CCC3)c2)o1 [WO2025054369, Example 69]",> 10000 nM
8,"COC(C)(C)c1cc(NC(=O)N2C3CC(C)CC2C3)ccc1Cl (stereo not drawn) [WO2025054369, Example 79]",5500 nM
9,"Cc1nnc(C23CC(C)CC(C2)N3C(=O)Nc2ccc(C(F)(F)F)c(C3CCC3)c2)o1 (stereo not drawn) [WO2025054369, Example 2]",< 1000 nM
10,"Cc1ccc(NC(=O)N2C3CCCC2C3)cc1CC1CC1 [WO2025054369, Example 13]",5500 nM
11,"Cc1ccc(NC(=O)CC2CCC2)cc1C1CC1 [WO2025054369, Example 21]",> 10000 nM
12,"Cc1ccc(NC(=O)N2C3CCCC2C3)cc1C12CC(C)(C1)C2 [WO2025054369, Example 24]",< 1000 nM
13,"Cc1nnc([C@@]23C[C@@H](C[C@@H](C(F)(F)F)C2)N3C(=O)Nc2ccc(Cl)c(C3CCC3)c2)o1 [WO2025054369, Example 68]",< 1000 nM
14,"Cc1nnc(C23CC(C)CC(C2)N3C(=O)Nc2ccc(Cl)c([C@H]3CC[C@H]3C#N)c2)o1 (stereo partly drawn) [WO2025054369, Example 4]",< 1000 nM
15,"Cc1ccc(NC(=O)N2C3CCCC2C3)cc1C1CN(C)C1 [WO2025054369, Example 15]",5500 nM
16,"Cc1ccc(NC(=O)N2C3CC(C)CC2C3)cc1C12CC(F)(C1)C2 (stereo not drawn) [WO2025054369, Example 23]",< 1000 nM
17,"CC1CC2CC(C1)N2C(=O)Nc1ccc(Cl)c(N2CC(OCCN)C2)c1 (stereo not drawn) [WO2025054369, Example 86]",> 10000 nM
18,"CC1CC2CC(C1)N2C(=O)Nc1ccc(Cl)c(C23CC(C2)C3)c1 (stereo not drawn) [WO2025054369, Example 20]",< 1000 nM
19,"Cc1ccc(NC(=O)N2C3CCCC2C3)cc1C1CC(=O)N(C)C1 (stereo not drawn) [WO2025054369, Example 14]",5500 nM
20,"CC1CC2CC(C1)N2C(=O)Nc1ccc(Cl)c(N2CC[C@H](O)C2)c1 (stereo partly drawn) [WO2025054369, Example 88]",< 1000 nM
21,"Cc1ccc(NC(=O)N2C3CCCC2C3)cc1N1CCN(C)C1=O [WO2025054369, Example 97]",5500 nM
22,"CC1CC2CC(C1)N2C(=O)Nc1ccc(Cl)c(C2(F)CCC2)c1 (stereo not drawn) [WO2025054369, Example 19]",< 1000 nM
23,"Cc1nnc(C23CC(C)CC(C2)N3C(=O)Nc2ccc(Cl)c([C@H]3C[C@H]3C#N)c2)o1 (stereo partly drawn) [WO2025054369, Example 17]",< 1000 nM
24,"CC1CC2CC(C1)N2C(=O)Nc1ccc(Cl)c(C2CC(C)(OCCO)C2)c1 (stereo not drawn) [WO2025054369, Example 74]",< 1000 nM
25,"CC1CC2CC(C1)N2C(=O)Nc1ccc(Cl)c(N2CC(OCCO)C2)c1 (stereo not drawn) [WO2025054369, Example 85]",5500 nM
26,"Cc1nnc(C23CC(C)CC(C2)N3C(=O)Nc2ccc(Cl)c(C3CCC3)c2)o1 (stereo not drawn) [WO2025054369, Example 1]",< 1000 nM

# Next, values leading:
row,IC50,SMILES
1,< 1000 nM,"CC1CC2CC(C1)N2C(=O)Nc1ccc(Cl)c(C2CCC2)c1 (stereo not drawn) [WO2025054369, Example 18]"
2,< 1000 nM,"CC1CC2CC(C1)N2C(=O)Nc1ccc(Cl)c(C2CC(C)(O)C2)c1 (stereo not drawn) [WO2025054369, Example 38]"
3,< 1000 nM,"O=C(Nc1ccc(Cl)c(N2CC(O)C2)c1)N1C2CC1CC(C(F)(F)F)C2 (stereo not drawn) [WO2025054369, Example 89]"
4,< 1000 nM,"CC1CC2CC(C1)N2C(=O)Nc1ccc(Cl)c([C@H]2C[C@@H](O)C2)c1 (stereo partly drawn) [WO2025054369, Example 37]"
5,< 1000 nM,"C[C@@H]1C[C@@H]2C[C@H](C1)N2C(=O)Nc1ccc(Cl)c(N2CC(C#N)C2)c1 [WO2025054369, Example 91]"
6,< 1000 nM,"CC1CC2CC(C1)N2C(=O)Nc1ccc(Cl)c([C@@H]2CC[C@H]2C(F)F)c1 (stereo partly drawn) [WO2025054369, Example 51]"
7,< 1000 nM,"CC1CC2CC(C1)N2C(=O)Nc1ccc(Cl)c([C@H]2C[C@@H](F)C2)c1 (stereo partly drawn) [WO2025054369, Example 49]"
8,5500 nM,"C[C@@]1(O)CC[C@@H](c2cc(NC(=O)N3C4CC3CC(C(F)(F)F)C4)ccc2Cl)C1 (stereo partly drawn) [WO2025054369, Example 65]"
9,< 1000 nM,"CC1CC2CC(C1)N2C(=O)Nc1ccc(Cl)c(C2CCC2=O)c1 (stereo not drawn) [WO2025054369, Example 83]"
10,< 1000 nM,"CC1CC2CC(C1)N2C(=O)Nc1ccc(Cl)c([C@@H]2CC[C@H]2n2cnnc2)c1 (relative stereo) [WO2025054369, Example 31]"
11,< 1000 nM,"N#C[C@@H]1CC[C@H]1c1cc(NC(=O)N2C3CC2CC(C(F)(F)F)C3)ccc1C(F)(F)F (stereo partly drawn) [WO2025054369, Example 55]"
12,< 1000 nM,"CC1CC2CC(C1)N2C(=O)Nc1ccc(Cl)c(N2CC[C@H]2C#N)c1 (stereo partly drawn) [WO2025054369, Example 72]"
13,< 1000 nM,"CC1CC2CC(C1)N2C(=O)Nc1ccc(Cl)c([C@@H]2CC[C@@H]2n2ccnn2)c1 (relative stereo) [WO2025054369, Example 28]"
14,5500 nM,"N#C[C@H]1CC[C@H]1c1cc(NC(=O)N2C3CCC2CC(C(F)(F)F)C3)ccc1Cl (relative stereo; form 2) [WO2025054369, Example 45]"
15,< 1000 nM,"CC1CC2CC(C1)N2C(=O)Nc1ccc(Cl)c([C@@H]2CC[C@@H]2C#N)c1 (stereo partly drawn) [WO2025054369, Example 9]"
16,< 1000 nM,"N#C[C@@H]1CC[C@@H]1c1cc(NC(=O)N2C3CC2CC(C(F)(F)F)C3)ccc1C(F)(F)F (stereo partly drawn) [WO2025054369, Example 53]"
17,< 1000 nM,"CC1CC2CC(C1)N2C(=O)Nc1ccc(Cl)c(C2CC(=O)C2)c1 (stereo not drawn) [WO2025054369, Example 77]"
18,< 1000 nM,"CC1CC2CC(C1)N2C(=O)Nc1ccc(Cl)c([C@@H]2CC[C@@H]2n2nccn2)c1 (relative stereo) [WO2025054369, Example 30]"
19,< 1000 nM,"CC1CC2CC(C1)N2C(=O)Nc1ccc(Cl)c([C@@H]2CC[C@@H]2C(F)F)c1 (stereo partly drawn) [WO2025054369, Example 40]"
20,> 10000 nM,"CC1CC2CC(C1)N2C(=O)Nc1ccc(Cl)c([C@H]2CC[C@@]2(C)O)c1 (stereo partly drawn) [WO2025054369, Example 47]"
21,< 1000 nM,"C[C@]1(O)CC[C@H](c2cc(NC(=O)N3C4CC3CC(C(F)(F)F)C4)ccc2Cl)C1 (stereo partly drawn) [WO2025054369, Example 64]"
22,< 1000 nM,"Cc1ccc(NC(=O)N2C3CC(C)CC2C3)cc1C1CCC1C#N (stereo not drawn) [WO2025054369, Example 6]"
23,< 1000 nM,"CC1CC2CC(C1)N2C(=O)Nc1cc(F)c(Cl)c([C@@H]2CC[C@@H]2C#N)c1 (stereo partly drawn) [WO2025054369, Example 34]"
24,5500 nM,"Cc1ccc(NC(=O)N2C3CCCC2C3)cc1C1CN(CC(F)(F)F)C1 [WO2025054369, Example 26]"
25,< 1000 nM,"N#C[C@H]1CC[C@H]1c1cc(NC(=O)N2C3CC2CC(C(F)(F)F)C3)ccc1Cl (stereo partly drawn) [WO2025054369, Example 32]"
26,5500 nM,"CC1(O)CC(c2cc(NC(=O)N3C4CC3CC(C(F)(F)F)C4)ccc2CN)C1 (stereo not drawn) [WO2025054369, Example 73]"
27,< 1000 nM,"CC1CC2CC(C1)N2C(=O)Nc1ccc(Cl)c([C@H]2CC[C@H]2C#N)c1 (stereo partly drawn) [WO2025054369, Example 10]"
